Common to all, as to assay: relative viability (nuclei count vs DMSO), 5 days (fraction); higher = more cells survive
Compound in assay [1]: C1CNCCC1C2=CC(=NN2)C3=CC=NC=C3 + Cc1nc(Nc2ncc(C(=O)Nc3c(C)cccc3Cl)s2)cc(N2CCN(CCO)CC2)n1 [Dasatinib] (partner 0.075 µM)
The method, boiled down: (§1)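 Cells from lung cancer lines were seeded into 1536-well plates and, one day later, dosed by pin tool. Treatments were either a single drug or a fixed dose of an anchor drug with five library-drug doses (not always all listed) in √10 steps. After 5 days, nuclei were stained in a one-step fixation (final 0.05% Triton X-100, 1% formaldehyde, 1 ug/ml Hoechst) and counted on 4× images, and relative viability is the treated-to-vehicle nuclei ratio, as the median of duplicate plates.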

Compound in assay [2]: C[C@@H](N)c1ccc(C(=O)Nc2ccnc3[nH]ccc23)cc1 + CC(=O)c1c(C)c2cnc(Nc3ccc(N4CCNCC4)cn3)nc2n(C2CCCC2)c1=O [Palbociclib] (partner 0.5 µM)
An outline of the steps:
as §1

Compound in assay [3]: C[C@@H](N)c1ccc(C(=O)Nc2ccnc3[nH]ccc23)cc1 + CC1(C)CCC(c2ccc(Cl)cc2)=C(CN2CCN(c3ccc(C(=O)NS(=O)(=O)c4ccc(N[C@H](CCN5CCOCC5)CSc5ccccc5)c(S(=O)(=O)C(F)(F)F)c4)cc3)CC2)C1 [Navitoclax] (partner 0.5 µM)
The method, boiled down:
as §1

Compound in the assay “Tanzisertib + AZD7762”: O[C@H]1CC[C@H](Nc2ncc3nc(Nc4c(F)cc(F)cc4F)n([C@H]4CCOC4)c3n2)CC1 [Tanzisertib] + NC(=O)Nc1cc(-c2cccc(F)c2)sc1C(=O)N[C@H]1CCCNC1 [AZD7762] (partner 0.2 µM)
The method, boiled down: as §1

As to EKVX, the relative viability is 0.576 in assay [1] (first compound 0.08 µM); 0.565 in assay [1] (first compound 0.8 µM); 0.645 in assay [1] (first compound 2.53 µM); 0.525 in assay [1] (first compound 8 µM); 0.413 in assay [2] (first compound 0.04 µM); 0.415 in assay [2] (first compound 0.1265 µM). Moreover, the relative viability in assay [2] (first compound 0.4 µM) stood at 0.432; in assay [2] (first compound 1.265 µM) it was 0.38; in assay [2] (first compound 4 µM), 0.28; in assay [3] (first compound 0.04 µM) it was 0.914; in assay [3] (first compound 0.1265 µM), 1.15; in assay [3] (first compound 0.4 µM), 1.32. The relative viability turned out to be 1.07 in assay [3] (first compound 1.265 µM); 0.807 in assay [3] (first compound 4 µM); 0.68 with Tanzisertib + AZD7762 (first compound 0.08 µM); 0.795 with Tanzisertib + AZD7762 (first compound 0.253 µM); 0.612 in the assay with Tanzisertib + AZD7762 (first compound 0.8 µM); 0.65 in the assay with Tanzisertib + AZD7762 (first compound 2.53 µM). For the same cell line, the relative viability in the assay with Tanzisertib + AZD7762 (first compound 8 µM) was 0.535.

With EMC-BAC-2, the relative viability in assay [1] (first compound 0.08 µM) stood at 0.261; in assay [1] (first compound 0.8 µM), 0.349; in assay [1] (first compound 2.53 µM), 0.352; in assay [1] (first compound 8 µM), 0.395; in assay [2] (first compound 0.04 µM), 0.473; in assay [2] (first compound 0.1265 µM), 0.501. The relative viability in assay [2] (first compound 0.4 µM) stood at 0.474; in assay [2] (first compound 1.265 µM) it was 0.48; in assay [2] (first compound 4 µM), 0.436; in assay [3] (first compound 0.04 µM), 1.28; in assay [3] (first compound 0.1265 µM) it was 1.18; in assay [3] (first compound 0.4 µM) it was 1.21. Moreover, the relative viability in assay [3] (first compound 1.265 µM) is 1.4; in assay [3] (first compound 4 µM), 0.977; with Tanzisertib + AZD7762 (first compound 0.08 µM), 1.16; with Tanzisertib + AZD7762 (first compound 0.253 µM) it was 1.15; with Tanzisertib + AZD7762 (first compound 0.8 µM), 1.04; with Tanzisertib + AZD7762 (first compound 2.53 µM) it was 0.947. Also, in the assay with Tanzisertib + AZD7762 (first compound 8 µM), the relative viability stood at 1.04.

Consider EPLC-272H, for which the relative viability in assay [1] (first compound 0.08 µM) turned out to be 0.392; in assay [1] (first compound 0.8 µM), 0.348; in assay [1] (first compound 2.53 µM), 0.393; in assay [1] (first compound 8 µM), 0.415; in assay [2] (first compound 0.04 µM), 0.39; in assay [2] (first compound 0.1265 µM) it was 0.356. The relative viability was found to be 0.384 in assay [2] (first compound 0.4 µM); 0.427 in assay [2] (first compound 4 µM); 1.14 in assay [3] (first compound 0.04 µM); 1.26 in assay [3] (first compound 0.1265 µM); 1.26 in assay [3] (first compound 0.4 µM); 0.975 in assay [3] (first compound 4 µM). Besides, the relative viability with Tanzisertib + AZD7762 (first compound 0.08 µM) was 0.352; with Tanzisertib + AZD7762 (first compound 0.253 µM), 0.324; with Tanzisertib + AZD7762 (first compound 0.8 µM), 0.175; with Tanzisertib + AZD7762 (first compound 2.53 µM), 0.175; with Tanzisertib + AZD7762 (first compound 8 µM), 0.176.

Regarding H3255, the relative viability in assay [1] (first compound 0.08 µM) was 0.352; in assay [1] (first compound 0.8 µM), 0.378; in assay [1] (first compound 2.53 µM) it was 0.369; in assay [1] (first compound 8 µM) it was 0.488; in assay [2] (first compound 0.04 µM) it was 0.299; in assay [2] (first compound 0.1265 µM), 0.298. Moreover, the relative viability in assay [2] (first compound 0.4 µM) was found to be 0.298; in assay [2] (first compound 1.265 µM), 0.336; in assay [2] (first compound 4 µM) it was 0.286; in assay [3] (first compound 0.04 µM) it was 0.554; in assay [3] (first compound 0.1265 µM), 0.846; in assay [3] (first compound 0.4 µM), 0.769. For the same cell line, the relative viability in assay [3] (first compound 1.265 µM) came to 0.575; in assay [3] (first compound 4 µM) it was 0.45; with Tanzisertib + AZD7762 (first compound 0.08 µM), 0.95; with Tanzisertib + AZD7762 (first compound 0.253 µM), 0.932; with Tanzisertib + AZD7762 (first compound 0.8 µM) it was 1; with Tanzisertib + AZD7762 (first compound 2.53 µM), 0.791. For the same cell line, the relative viability with Tanzisertib + AZD7762 (first compound 8 µM) stood at 0.554.
